The source of these data is article PMC10007235 (Polymers, 2023).

On the set-up of series [1]: method as in a previous report. The settings on record: absence of polymer; ref a previous report; cited from earlier work.
Series [2] in a line: Nucleation induction time measurement from supersaturated solution. The series is classed as physicochemical. The conditions noted are these: for Nucleation induction time / Time high (supersaturated) concentration maintained: 25 °C. How it is done:
HPLC was analyzed using a Dionex-Ultimate 3000 HPLC (Dionex, Sunnyvale, CA, USA) equipped with an Inertsil ODS C18 (6.0 × 150 mm) column at 35 °C. […] The samples were analyzed by injecting 10 μL at 244 nm using a UV detector. […] The linearity was evaluated by linear regression analysis calculated using the least-squares regression method. […] The experiment was performed in triplicate (mean values + SD). Each polymer (chitosan and HPMC) was dissolved in an aqueous solution at a concentration of 500 μg/mL.

As to `CC(C)c1nc(CN(C)C(=O)N[C@H](C(=O)N[C@@H](Cc2ccccc2)C[C@H](O)[C@H](Cc2ccccc2)NC(=O)OCc2cncs2)C(C)C)cs1` [RTV, ritonavir], in series [1], the Induction time is 120 min. Besides, the values for the Nucleation induction time in series [2] (HPMC solution 500 μg/mL), in series [2] (absence of polymer (water)) and in series [2] (chitosan solution 500 μg/mL) were 32 h, 0.5 h and 24 h, respectively. The results for the “Time high (supersaturated) concentration maintained” value in series [2] (chitosan solution 500 μg/mL) and in series [2] (water) were 24 h and 0.5 h, respectively. In addition, in series [2] (with chitosan and HPMC versus no polymer), the “Enhancement in induction time” value is listed as 48–64 fold.
